Results reported in US8952024B2, “Herbicidal pyrimidone derivatives” (E I du Pont de Nemours and Company, priority 2009, dated 2015).
Read-outs that look alike come from different tables or passages of the source.

What was measured:
Test in all cases: Test B pre-/postemergence plant response
Assay type in all cases: in vivo
[1] = tested on: Italian ryegrass (Lolium multiflorum); details: for pest or weed control at 31 g/ha: 31 g ai/ha; for pest or weed control at 62 g/ha: 62 g ai/ha; for pest or weed control at 125 g/ha: 125 g ai/ha
Procedure, shortened: (§1)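 Visually scored on a 0 to 100 scale after 13 to 15 days in greenhouse versus controls. Treatments were preemergence on seeded loam/sand soil and postemergence on 1- to 4-leaf plants.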

[2] = tested on: bermudagrass (Cynodon dactylon); details: for pest or weed control at 31 g/ha: 31 g ai/ha; for pest or weed control at 62 g/ha: 62 g ai/ha; for pest or weed control at 125 g/ha: 125 g ai/ha
Procedure, shortened: as §1

[3] = tested on: cocklebur (Xanthium strumarium); details: Preemergence
Procedure, shortened: as §1

[4] = tested on: downy bromegrass (Bromus tectorum); details: for pest or weed control at 31 g/ha: 31 g ai/ha; for pest or weed control at 62 g/ha: 62 g ai/ha; for pest or weed control at 125 g/ha: 125 g ai/ha
Procedure, shortened: as §1

kochia (Kochia scoparia) = details: for pest or weed control at 31 g/ha: 31 g ai/ha; for pest or weed control at 62 g/ha: 62 g ai/ha; for pest or weed control at 125 g/ha: 125 g ai/ha
Procedure, shortened: as §1

[5] = tested on: large crabgrass (Digitaria sanguinalis); details: for pest or weed control at 31 g/ha: 31 g ai/ha; for pest or weed control at 62 g/ha: 62 g ai/ha; for pest or weed control at 125 g/ha: 125 g ai/ha
Procedure, shortened: as §1

[6] = tested on: morningglory (Ipomoea coccinea); details: Ipomoea, post-emergence; Postemergence, 31 g ai/ha; 0 to 100 scale (0 no effect, 100 complete control); read-out: Plant response rating, Morningglory
Procedure, shortened: as §1

[7] = Lolium multiflorum, pre-emergence, Preemergence, scale 0 to 100 (0 no effect, 100 complete control), read-out: Plant response rating, Ryegrass, Italian
[8] = Preemergence, 250 g ai/ha, 0 to 100 scale
[9] = Cynodon dactylon, pre-emergence, Preemergence, scale 0 to 100 (0 no effect, 100 complete control), read-out: Plant response rating, Bermudagrass
[10] = Bromus tectorum, pre-emergence, Preemergence, scale 0 to 100 (0 no effect, 100 complete control), read-out: Plant response rating, Bromegrass, Downy
[11] = Bassia scoparia, pre-emergence, Preemergence, scale 0 to 100 (0 no effect, 100 complete control), read-out: Plant response rating, Kochia
[12] = Digitaria sanguinalis, pre-emergence, Preemergence, scale 0 to 100 (0 no effect, 100 complete control), read-out: Plant response rating, Crabgrass, Large

COCCn1c(-c2cc(F)cc(F)c2)ncc(C(=O)C2=C(O)C3CCC(C3)C2=O)c1=O (centres unmarked) [Compound 243, 2-(3,5-difluorophenyl)-5-[(2-hydroxy-4-oxobicyclo[3.2.1]oct-2-en-3-yl)carbonyl]-3-(2-methoxyethyl)-4(3H)-pyrimidinone]
pest or weed control at 31 g/ha ([1]; Lolium multiflorum, post-emergence, Postemergence, 0 to 100 scale (0 no effect, 100 complete control), read-out: Plant response rating, Ryegrass, Italian): 60% | pest or weed control at 62 g/ha ([1]; Lolium multiflorum, post-emergence, Postemergence, scale 0 to 100 (0 no effect, 100 complete control), read-out: Plant response rating, Ryegrass, Italian): 85% | pest or weed control at 125 g/ha ([1]; Lolium multiflorum, post-emergence, Postemergence, scale 0 (no effect) to 100 (complete control), 13 to 15 days, read-out: Plant response rating, Ryegrass, Italian): 85% | pest or weed control at 250 g/ha ([1]; Lolium multiflorum, post-emergence, Postemergence, 250 g ai/ha, scale 0 to 100 (0 no effect, 100 complete control), 13 to 15 days, read-out: Plant response rating, Ryegrass, Italian): 95% | pest or weed control at 31 g/ha [1, 7]: 0% | pest or weed control at 62 g/ha [1, 7]: 10% | pest or weed control at 125 g/ha ([1]; Lolium multiflorum, pre-emergence, Preemergence, scale 0 to 100, 0 no effect, 100 complete control, read-out: Plant response rating, Ryegrass, Italian): 45% | Ryegrass, Italian plant response rating [1, 8]: 70 | pest or weed control at 31 g/ha ([2]; Cynodon dactylon, post-emergence, Postemergence, 0 to 100 scale (0 no effect, 100 complete control), read-out: Plant response rating, Bermudagrass): 98% | pest or weed control at 62 g/ha ([2]; Cynodon dactylon, post-emergence, Postemergence, scale 0 to 100 (0 no effect, 100 complete control), read-out: Plant response rating, Bermudagrass): 98% | pest or weed control at 125 g/ha ([2]; Cynodon dactylon, post-emergence, Postemergence, scale 0 (no effect) to 100 (complete control), 13 to 15 days, read-out: Plant response rating, Bermudagrass): 100% | pest or weed control at 250 g/ha ([2]; Cynodon dactylon, post-emergence, Postemergence, 250 g ai/ha, scale 0 to 100 (0 no effect, 100 complete control), 13 to 15 days, read-out: Plant response rating, Bermudagrass): 100% | pest or weed control at 31 g/ha [2, 9]: 100% | pest or weed control at 62 g/ha [2, 9]: 100% | pest or weed control at 125 g/ha ([2]; Cynodon dactylon, pre-emergence, Preemergence, scale 0 to 100, 0 no effect, 100 complete control, read-out: Plant response rating, Bermudagrass): 100% | Bermudagrass plant response rating ([2]; Preemergence, 250 g ai/ha, 0 to 100 scale, 0 no effect, 100 complete control): 100 | Cocklebur plant response rating ([3]; 250 g ai/ha, 0 to 100 scale): 98 | pest or weed control at 62 g/ha ([3]; Xanthium strumarium, pre-emergence, 62 g ai/ha, scale 0 to 100 (0 no effect, 100 complete control), read-out: Plant response rating, Cocklebur): 75% | pest or weed control at 125 g/ha ([3]; Xanthium strumarium, pre-emergence, 125 g ai/ha, scale 0 to 100, 0 no effect, 100 complete control, read-out: Plant response rating, Cocklebur): 95% | pest or weed control at 31 g/ha ([4]; Bromus tectorum, post-emergence, Postemergence, 0 to 100 scale (0 no effect, 100 complete control), read-out: Plant response rating, Bromegrass, Downy): 50% | pest or weed control at 62 g/ha ([4]; Bromus tectorum, post-emergence, Postemergence, scale 0 to 100 (0 no effect, 100 complete control), read-out: Plant response rating, Bromegrass, Downy): 70% | pest or weed control at 125 g/ha ([4]; Bromus tectorum, post-emergence, Postemergence, scale 0 (no effect) to 100 (complete control), 13 to 15 days, read-out: Plant response rating, Bromegrass, Downy): 95% | pest or weed control at 250 g/ha ([4]; Bromus tectorum, post-emergence, Postemergence, 250 g ai/ha, scale 0 to 100 (0 no effect, 100 complete control), 13 to 15 days, read-out: Plant response rating, Bromegrass, Downy): 100% | pest or weed control at 31 g/ha [4, 10]: 0% | pest or weed control at 62 g/ha [4, 10]: 40% | pest or weed control at 125 g/ha ([4]; Bromus tectorum, pre-emergence, Preemergence, scale 0 to 100, 0 no effect, 100 complete control, read-out: Plant response rating, Bromegrass, Downy): 60% | Bromegrass, Downy plant response rating [4, 8]: 70 | pest or weed control at 31 g/ha (kochia (Kochia scoparia); Bassia scoparia, post-emergence, Postemergence, 0 to 100 scale (0 no effect, 100 complete control), read-out: Plant response rating, Kochia): 85% | pest or weed control at 62 g/ha (kochia (Kochia scoparia); Bassia scoparia, post-emergence, Postemergence, scale 0 to 100 (0 no effect, 100 complete control), read-out: Plant response rating, Kochia): 95% | pest or weed control at 125 g/ha (kochia (Kochia scoparia); Bassia scoparia, post-emergence, Postemergence, scale 0 (no effect) to 100 (complete control), 13 to 15 days, read-out: Plant response rating, Kochia): 100% | pest or weed control at 250 g/ha (kochia (Kochia scoparia); Bassia scoparia, post-emergence, Postemergence, 250 g ai/ha, scale 0 to 100 (0 no effect, 100 complete control), 13 to 15 days, read-out: Plant response rating, Kochia): 100% | pest or weed control at 31 g/ha (kochia (Kochia scoparia); [11]): 15% | pest or weed control at 62 g/ha (kochia (Kochia scoparia); [11]): 20% | pest or weed control at 125 g/ha (kochia (Kochia scoparia); Bassia scoparia, pre-emergence, Preemergence, scale 0 to 100, 0 no effect, 100 complete control, read-out: Plant response rating, Kochia): 90% | Kochia plant response rating (kochia (Kochia scoparia); [8]): 100 | pest or weed control at 31 g/ha ([5]; Digitaria sanguinalis, post-emergence, Postemergence, 0 to 100 scale (0 no effect, 100 complete control), read-out: Plant response rating, Crabgrass, Large): 95% | pest or weed control at 62 g/ha ([5]; Digitaria sanguinalis, post-emergence, Postemergence, scale 0 to 100 (0 no effect, 100 complete control), read-out: Plant response rating, Crabgrass, Large): 100% | pest or weed control at 125 g/ha ([5]; Digitaria sanguinalis, post-emergence, Postemergence, scale 0 (no effect) to 100 (complete control), 13 to 15 days, read-out: Plant response rating, Crabgrass, Large): 100% | pest or weed control at 250 g/ha ([5]; Digitaria sanguinalis, post-emergence, Postemergence, 250 g ai/ha, scale 0 to 100 (0 no effect, 100 complete control), 13 to 15 days, read-out: Plant response rating, Crabgrass, Large): 100% | pest or weed control at 31 g/ha [5, 12]: 100% | pest or weed control at 62 g/ha [5, 12]: 100% | pest or weed control at 125 g/ha ([5]; Digitaria sanguinalis, pre-emergence, Preemergence, scale 0 to 100, 0 no effect, 100 complete control, read-out: Plant response rating, Crabgrass, Large): 100% | Crabgrass, Large plant response rating [5, 8]: 100 | pest or weed control at 31 g/ha [6]: 95%
